# In paper PMC5522996, “Big conductance calcium‐activated potassium channel openers control spasticity without sedation” (British Journal of Pharmacology, 2017):
# How the values were obtained:
# [1] = system: spastic ABH mice with EAE; assay: Spasticity: resistance to hindlimb flexion against a strain gauge
# ABH mice [2] = assay: Temperature testing (hypothermia); format: in vivo, mouse; conditions: for Temperature loss: 10 mg·kg^−1 i.v.
# Experimental: These recordings were assessed 20 min following administration of compounds. Results are expressed as mean ± SEM, and were analysed by Student's t‐test or a one‐way ANOVA with Bonferroni post hoc test using Sigma/StatV3/Sigmpaplot V9 or V11 software (Pryce et al., 2014).
# ABH mice [3] = assay: Open‐field activity monitoring (hypomotility); format: in vivo, mouse
# Experimental: Motor activity was assessed using 27.9 × 27.9 cm open field activity monitor chambers and computer software (Med Associates Inc, St. Albans, VT, USA.). This was typically performed in a darkened room. Recordings were initiated once the mouse entered the chamber and continued for 5 min. These chambers, allowing four simultaneous recordings of individual mice and were fitted with infrared beams that could detect movement in the X, Y planes. The total distance travelled (cm) was recorded. Results are expressed as mean ± SEM. These were analysed by Student's paired t‐test or a one‐way ANOVA with Bonferroni post hoc test, using SigmaStat V3/Sigmaplot V9 or V11 software (Systat Ltd Hounslow, UK. Al‐Izki et al., 2012).
# mouse vas deferens = assay: Electrically‐evoked contraction of the mouse vas deferens; format: cell-based; conditions: Mus musculus; read-out: EC50, inhibition of electrically‐evoked contraction
# Experimental: Vasa deferentia were obtained from outbred MF‐1 mice and mounted vertically in a 4 mL organ bath at an initial tension of 0.5 g. The baths contained Mg^2+‐free Krebs solution (NaCl 118.2 mM, KCl 4.75 mM, KH2PO4 1.19 mM, NaHCO3 25.0 mM, glucose 11.0 mM and CaCl2·6H2O 2.54 mM), which was kept at 35–36°C and bubbled with 95% O2 and 5% CO2. […] Contractions were monitored by a computer using a data recording and analysis system as described previously (Ross et al., 2001). After placement in an organ bath, each tissue was subjected to a stimulation‐free period of 10 min and then stimulated for 10 min. Tissues were then subjected to alternate periods of stimulation (5 min) and rest (10 min) until consistent twitch amplitudes were obtained. This equilibration procedure was followed by a stimulation‐free period of 25 min. Tissues were then stimulated for 5 min after which the first agonist addition was made and stimulation continued until the end of the experiment.
# BKCa channel = target: T1, BKCa channel (Homo sapiens, UniProt Q12791+Q86W47); assay: Single‐channel inside‐out patch clamp, EA.hy926 cells; format: cell-based; conditions: 3 μM, inner surface of membrane, 40 mV, 0.3 μM free Ca^2+
# T1 construct: host or cells: EA.hy926 endothelial cells
# Experimental: The human EA.hy926 endothelial cells (ATCC, Manassas, USA) were grown in DMEM containing 10% FCS and 1% HAT (5 mM hypoxanthine, 20 μM aminopterin and 0.8 mM thymidine) and were maintained in an incubator at 37°C in 5% CO2 atmosphere (Bondarenko et al., 2013). Human HNC‐2 neuronal cells were obtained from ATCC. For experiments, cells were plated on glass coverslips. Single‐channel recordings were obtained from excised inside‐out membrane patches in symmetrical solutions using the patch‐clamp technique. All patch‐clamp experiments were performed at room temperature with the use of a water hydraulic micromanipulator (WR‐6, Narishige, Japan). […] The pipettes were filled with 140 mM KCl, 10 mM HEPES, 1 mM MgCl2, 5 mM EGTA and […] CaCl2 buffered to pH 7.2 by adding KOH. Cells were super‐perfused with a bath solution containing 140 mM NaCl, 5 mM KCl, 1.2 mM MgCl2, 10 mM HEPES, 10 mM glucose and 2.4 mM CaCl2. Following gigaseal formation, bath solution was switched to the following: 140 mM KCl, 10 mM HEPES, 1 mM MgCl2, 5 mM EGTA and a designated free Ca^2+ concentration, which was adjusted by adding different amounts of CaCl2 buffered to pH 7.2. (Bondarenko et al., 2011; Bondarenko et al., 2013). Single‐channel activity was expressed as NPo, where N represents the number of functional ion channels in the membrane patch and Po represents the open channel probability determined from idealized traces (Bondarenko et al., 2011). NPo was obtained from ≥20 s of continuous recording under each experimental condition. The effect of VSN16R was estimated after 3 min of continuous exposure to VSN16R‐containing solution. Data were analysed by ANOVA, and statistical significance was evaluated using Scheffés post hoc test of the Prism 5 software for Windows (GraphPad Software).
# [4] = Plasma, brain and spinal cord levels in ABH mice with spastic EAE; format: in vivo, mouse; conditions: after 5 mg·kg^−1 p.o. VSN16R, ABH mice with spastic EAE
# Experimental: The stability of compounds when subjected to hepatic and plasma degradation was assessed in vitro by Inpharmatica, Cambridge, UK. Compounds (1 μM) were incubated with either pooled mouse liver microsomes (0.1 mg protein mL^−1) or pooled mouse plasma at 37°C for 0, 5, 10, 20 and 40 min before termination with acetonitrile containing warfarin as an analytical internal standard. Samples were centrifuged, and the resultant supernatant analysed for parent compound. The mass responses at baseline were taken as the 100% reference values against which the disappearance of the compound was measured. The natural log of the % remaining values was used to generate linear plots of disappearance of the compounds. Half‐life values were calculated from the slope of these plots. Hepatocyte metabolism was assessed by Cyprotex, Macclesfield, and 10 μM VSN16R was incubated with primary mouse, rat, monkey (Macaque) and human hepatocytes for 1 h, and the presence of metabolites was assessed using liquid […] mass spectroscopy. The stability of VSN16R was assessed in vivo by Inpharmatica, Cyprotex and Charles Rivers, Cambridge. Blood (plasma) samples were obtained prior to and 5 min to 24 h after drug administration of 2–5 mg·kg^−1 i.v. or 5 mg·kg^−1 p.o. VSN16R into outbred mice and rats (n = 3 per time point). In addition, plasma, brain and spinal cord samples were obtained from ABH with spastic EAE. Immediately after blood collection, the brain and spinal cord were removed and then stored at −20°C prior to assay. Tissue samples were weighed, homogenized and centrifuged, and the lysates generated. Brain lysates and plasma were assayed by LC–MS methods by Inpharmatica/Charles Rivers, Cambridge, UK. This was also performed using a Waters Xevo TQ or API4000, AB Sciex mass spectrometer using spiked samples as standards. PK Solutions Software (Summit Research Services, Montrose, CO, USA), AB Sciex Analyst software combined with Thermo Fisher Scientific Watson LIMS processing and reporting software or WinNonLin pharmacokinetic or PK solutions 2.0 software (Summit Research Services, Montrose CO, USA) were used to produce PK parameters. Data are expressed as mean ± SEM. The detection limit of VSN16R was 2 ng·mL^−1 in plasma and brain and 14 ng·mL^−1 in spinal cords. The detection limit of VSN22R was 2 ng·mL^−1 in plasma and 0.1 ng·mL^−1 for VSN44R in plasma. Pharmacokinetics in toxicological samples in rats (n = 6 per group), dogs (n = 6 per group) and humans (n = 6 per group) were performed by Charles Rivers (Edinburgh, UK).
# rat mesenteric artery = assay: Methoxamine‐evoked contraction of rat mesenteric artery; format: cell-based; conditions: 50 nM blocker pretreatment
# Experimental: Vessels were equilibrated and set to a basal tension of 2 to 2.5 mN. The integrity of the endothelium was assessed by pre‐contracting the vessel with 10 μM methoxamine (an α1‐adrenoceptor agonist), followed by relaxation with 10 μM carbachol (a muscarinic acetylcholine receptor agonist); vessels showing relaxations of greater than 90% were designated as endothelium‐intact. When the endothelium was not required, it was removed by rubbing the intima with a human hair; carbachol‐induced relaxation of less than 10% indicated successful removal. After the test for endothelial integrity, vessels were left for 30 min and then pre‐contracted with 10 μM methoxamine. This was followed by construction of a cumulative concentration–relaxation curve to VSN16R (10 nM–1 μM). […] Most experiments were performed in matched vessels; effects of blockers or endothelial removal were compared with the control responses obtained in separate vessels of the same rats. All relaxant responses are expressed as percentage relaxation of the tone induced by methoxamine. Values are given as mean ± SEM. Statistical comparisons of concentration‐dependent responses were made by two‐way ANOVA using Prism 4 (GraphPad Software, Inc, San Diego, CA, USA).
# [5] = i.p., 40 mg·kg^−1 BMS‐204352, 20 mg·kg^−1 NS‐1619, 10 mg·kg^−1 NS‐11021
# T1 sequence (Q12791 whole entry): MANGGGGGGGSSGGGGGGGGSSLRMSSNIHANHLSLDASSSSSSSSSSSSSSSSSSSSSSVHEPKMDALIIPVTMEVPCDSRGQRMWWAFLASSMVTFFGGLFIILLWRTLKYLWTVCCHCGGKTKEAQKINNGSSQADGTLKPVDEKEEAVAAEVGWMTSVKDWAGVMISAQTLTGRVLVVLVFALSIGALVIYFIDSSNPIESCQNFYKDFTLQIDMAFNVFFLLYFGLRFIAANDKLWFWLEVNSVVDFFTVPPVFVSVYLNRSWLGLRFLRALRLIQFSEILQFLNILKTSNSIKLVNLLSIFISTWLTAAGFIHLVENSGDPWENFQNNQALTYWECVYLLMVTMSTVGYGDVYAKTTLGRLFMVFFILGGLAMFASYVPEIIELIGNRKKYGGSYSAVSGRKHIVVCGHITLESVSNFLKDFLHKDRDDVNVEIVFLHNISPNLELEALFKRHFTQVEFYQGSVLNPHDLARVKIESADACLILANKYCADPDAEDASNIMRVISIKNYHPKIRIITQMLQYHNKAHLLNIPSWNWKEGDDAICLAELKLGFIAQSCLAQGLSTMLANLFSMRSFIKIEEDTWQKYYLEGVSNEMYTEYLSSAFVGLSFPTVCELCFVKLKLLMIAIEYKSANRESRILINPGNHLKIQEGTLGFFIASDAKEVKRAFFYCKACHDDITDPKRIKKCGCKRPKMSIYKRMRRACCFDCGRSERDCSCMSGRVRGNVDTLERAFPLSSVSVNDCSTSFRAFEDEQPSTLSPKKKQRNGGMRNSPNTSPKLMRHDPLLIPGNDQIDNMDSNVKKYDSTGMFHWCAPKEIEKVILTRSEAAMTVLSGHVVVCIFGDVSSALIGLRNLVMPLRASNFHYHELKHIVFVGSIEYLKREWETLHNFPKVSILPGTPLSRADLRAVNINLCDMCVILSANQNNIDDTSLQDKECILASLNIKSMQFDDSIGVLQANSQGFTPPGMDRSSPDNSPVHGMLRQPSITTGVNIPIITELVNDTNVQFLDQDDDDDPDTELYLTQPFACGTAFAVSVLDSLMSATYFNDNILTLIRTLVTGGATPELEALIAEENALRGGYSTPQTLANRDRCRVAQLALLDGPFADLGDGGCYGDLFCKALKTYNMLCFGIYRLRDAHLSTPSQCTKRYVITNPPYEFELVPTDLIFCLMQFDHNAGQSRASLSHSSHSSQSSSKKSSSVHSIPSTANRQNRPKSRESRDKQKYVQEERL
# T1 sequence (Q86W47 whole entry): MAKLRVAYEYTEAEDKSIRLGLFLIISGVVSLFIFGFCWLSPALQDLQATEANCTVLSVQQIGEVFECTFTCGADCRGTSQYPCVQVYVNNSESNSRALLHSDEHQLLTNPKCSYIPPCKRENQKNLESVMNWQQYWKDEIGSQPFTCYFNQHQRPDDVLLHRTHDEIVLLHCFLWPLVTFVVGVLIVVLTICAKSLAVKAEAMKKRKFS
compound,measurement,setting,value
"COc1ccc(Cl)cc1[C@]1(F)C(=O)Nc2cc(C(F)(F)F)ccc21 [BMS‐204352, reference compound]",Inhibition of spasticity,[1]; [5],significantly inhibit spasticity
same,Sedation,[1]; [5],without causing sedation
"N#Cc1cc2[nH]c(=O)c(=O)[nH]c2cc1[N+](=O)[O-] [CNQX, reference compound]",Inhibitory response on repeated dosing,[1]; repeated 25 mg·kg^−1 s.c.,inhibitory responses that diminished over time
"CCCCCCC(C)(C)c1cc(O)c2c(c1)OC(C)(C)[C@@H]1CC=C(C(=O)O)C[C@@H]21 [CT3, 1′, 1′‐dimethylheptyl‐M8‐tetrahydrocannabinol‐11‐oic acid]",Temperature loss,"ABH mice [2]; 20 min, spastic animals",2.3 ± 0.4 °C
same,Temperature loss,ABH mice [2]; healthy mice,0.0 ± 0.1 °C
"O=c1[nH]c2cc(C(F)(F)F)ccc2n1-c1cc(C(F)(F)F)ccc1O [NS‐1619, reference compound]",Inhibition of spasticity,[1]; [5],significantly inhibit spasticity
same,Sedation,[1]; [5],without causing sedation
"FC(F)(F)c1cc(NC(=S)Nc2ccc(Br)cc2-c2nn[nH]n2)cc(C(F)(F)F)c1 [NS‐11021, reference compound]",Inhibition of spasticity,[1]; [5],significantly inhibit spasticity
same,Sedation,[1]; [5],without causing sedation
Cc1c(C(=O)c2cccc3ccccc23)c2cccc3c2n1[C@H](CN1CCOCC1)CO3 [R(+)WIN55‐212],Hypothermia,"ABH mice [2]; 1 mg·kg^−1 i.v., 20 min after administration",significant sedative effects
same,Hypomotility in open field,"ABH mice [3]; 1 mg·kg^−1 i.v., 30 min after administration",significant sedative effects
"C[C@@H](NC(=O)c1cccc(/C=C\CCCC(=O)N(C)C)c1)C(=O)O [VSN44R, (Z)‐(3‐(6‐(dimethylamino)‐6‐oxohex‐1‐en‐1‐yl)benzoyl)‐D‐alanine]",EC50,mouse vas deferens,1 nM
same,Single BKCa channel activity,BKCa channel,facilitated single BKCa channel activity
same,Plasma level of the named species,[4],2.1 ± 0.3 ng/mL
same,Inhibition of spasticity,[1]; 5 mg·kg^−1 i.v.,could inhibit the spasticity
"NCC(CC(=O)O)c1ccc(Cl)cc1 (stereo not shown) [baclofen, reference compound]","Sedation (hypomotility, hypothermia)",ABH mice [3]; 5 mg·kg^−1 i.v.,significant sedation
same,Inhibition of spasticity,[1]; 5 mg·kg^−1 i.v.,comparable inhibition of spasticity
same,Inhibitory response on repeated dosing,[1]; repeated 5 mg·kg^−1 p.o.,inhibitory responses that diminished over time
"CC(C)(O)[C@H]1O[C@H]2CC[C@@]3(C)[C@@](O)(CC[C@H]4Cc5c([nH]c6ccccc56)[C@@]43C)C2=CC1=O [paxilline, reference compound]",Effect on baseline level of spasticity,[1]; 1 mg·kg^−1 i.p.,did not influence the baseline level of spasticity
same,Effect of pretreatment on the action of VSN16R,[1]; 1 mg·kg^−1 i.p. before 5 mg·kg^−1 p.o. VSN16R,completely inhibit the action of VSN16R
Apamin: KCa2.2/2.3 (KCNN2/KCNN3) channel antagonist (CNCKAPETALCARRCQQHG),Effect of the blocker on VSN16R vasorelaxation,rat mesenteric artery,small inhibitory effect
charybdotoxin,Effect of the blocker on VSN16R vasorelaxation,rat mesenteric artery,significantly inhibited
